# Columns and labels:
# [1] = Body weight of tumor‐bearing mice (HepG2, Hep3B, PDX1, PDX2); format: in vivo; settings: CDX and PDX models, compared with control
# Method: (§1) When the tumor volume reached approximately 100 mm^3, CDX & PDX tumor‐bearing mice were randomly divided into groups: (1) blank solvent; (2) ZY0511 50 mg/kg per day, i.p.; (3) ZY0511 100 mg/kg per day, i.p.; and (4) combinatorial treatment of ZY0511 50 mg/kg with DTP3 30 mg/kg, per day, i.p. Tumor sizes and animal body weights were monitored every 3 days, and tumor volumes were calculated as 0.5 × length × width^2. TGI rate was calculated as (1 − tumor volume of treated group/tumor volume of control group) x 100%.
# [2] = system: Hep3B; assay: EdU incorporation assay; settings: 96 h
# Method: (§3) EdU assay was utilized to detect proliferating cells. […] EdU‐positive cells were detected by employing high‐throughput screening (HTS; Thermo Fisher), and the EdU incorporation rate was calculated.
# [3] = system: 104 cancer‐related kinases; assay: Kinase activity detection (Eurofins), whole panel; format: biochemical; settings: ZY0511 1 μM
# Method: The activity of ZY0511 against 104 cancer‐related kinases was carried out by Eurofins Pharma Discovery Services (Celle Lévescault, France).
# [4] = system: LSD1 knockout JHH7 cells; assay: Proliferation of LSD1 knockout JHH7 cells after ZY0511; format: cell-based, human; settings: ZY0511 treatment for 96 h
# Method: Cell viability was determined using Cell Counting Kit‐8 (CCK8; Dojindo) or 3‐(4, 5‐dimethylthiazol‐2‐yl)‐2,5‐diphenyltetrazoliumbromide (MTT, Sigma Aldrich) assay. […] Consequently, cell viability was determined using a microplate reader (Thermo Fisher) at 450 nm for CCK8 assay, or 570 nm for MTT assay, at different time points. The IC50 values and CI values were analyzed and calculated using GraphPad Prism 8 and CompuSyn (version 1.0; http://www.combosyn.com), respectively.
# [5] = system: PDX3 tumors; assay: Third PDX model (PDX3), ZY0511 and DTP3; format: in vivo, NOD/SCID mice
# Method: (§2) For CDX models, HCC cells (HepG2, Hep3B) were harvested, and cells suspension (5 × 10^6 − 1 × 10^7 cells per mouse) were subcutaneously injected into the hind flank region of nude mice. For PDX models, fresh HCC tissues obtained from West China Hospital were minced into 2–5 mm^3 sizes to build the PDX models. The HCC tissue fragments were transplanted into the hind flank region of NOD/SCID mice within 2 h. Once the tumor volume reached ∼2 cm^3, the PDX models were expanded.
# as §1
# Both procedures were carried out as previously described.[21] In brief, samples were fixated in 4% paraformaldehyde and consequently paraffin‐coated. Thin tissue segments (4 μm) were prepared, and H&E staining was performed. […]
# [6] = system: Hep3B xenograft; assay: Cell‐derived xenograft (CDX) model; format: in vivo, nude mice; settings: 100 mg/kg i.p., 18 days
# Method: as §2, §1
# [7] = system: HepG2 xenograft; assay: Cell‐derived xenograft (CDX) model; format: in vivo, nude mice; settings: 100 mg/kg i.p., 18 days
# Method: as §2, §1
# [8] = system: PLC/PRF/5; assay: EdU incorporation assay; settings: PLC/PRF/5, 96 h
# Method: as §3
structure (smiles),measurement,setting,value
"O=C(N/N=C1\CCc2c(Cl)ccc(O)c21)c1cccc(S(=O)(=O)N2CCOCC2)c1 [ZY0511, (E)‐N'‐(2, 3‐dihydro‐1H‐inden‐1‐ylidene) benzohydrazides]",body weight of mice,[1],did not change
same,inhibition rate of EdU‐positive cells,[2],99.9%
same,"effect against other kinases, including FGFR, VEGFR, and PDGFR",[3],no effect
same,decrease of sensitivity of JHH7 cells to ZY0511 by LSD1 knockout,[4],20%
same,TGI,"[5]; PDX3, ZY0511 50 mg/kg i.p., 15 days",32.79%
same,mice body weight,"[5]; PDX3, ZY0511 and/or DTP3, 15 days",no change
same,tumor growth inhibition (TGI),[6],52.70%
same,tumor growth inhibition (TGI),[7],58.29%
same,inhibition rate of EdU‐positive cells,[8],9.2%

# From article PMC10209615, “Pharmacological inhibition of LSD1 suppresses growth of hepatocellular carcinoma by inducing GADD45B” (MedComm, 2023)
